Results on nine molecules are retold here after patent publication US7576217B2, “Quinolines as allosteric enhancers of the GABAB receptors” (Hoffman-La Roche Inc., priority 2004, dated 2009).

Like-named read-outs stand apart in the source and are kept apart here.

The conditions of data set [1]: PO, cited from earlier work.
For data set [2] the following is noted: rats; cited from earlier work.
A further data set deals with T1, human GABABR1aR2a (Homo sapiens, UniProt O75899+Q9UBS5).
T1 construct: expressed in transfected cells
T1 sequence (Q9UBS5 15-961 limits assumed): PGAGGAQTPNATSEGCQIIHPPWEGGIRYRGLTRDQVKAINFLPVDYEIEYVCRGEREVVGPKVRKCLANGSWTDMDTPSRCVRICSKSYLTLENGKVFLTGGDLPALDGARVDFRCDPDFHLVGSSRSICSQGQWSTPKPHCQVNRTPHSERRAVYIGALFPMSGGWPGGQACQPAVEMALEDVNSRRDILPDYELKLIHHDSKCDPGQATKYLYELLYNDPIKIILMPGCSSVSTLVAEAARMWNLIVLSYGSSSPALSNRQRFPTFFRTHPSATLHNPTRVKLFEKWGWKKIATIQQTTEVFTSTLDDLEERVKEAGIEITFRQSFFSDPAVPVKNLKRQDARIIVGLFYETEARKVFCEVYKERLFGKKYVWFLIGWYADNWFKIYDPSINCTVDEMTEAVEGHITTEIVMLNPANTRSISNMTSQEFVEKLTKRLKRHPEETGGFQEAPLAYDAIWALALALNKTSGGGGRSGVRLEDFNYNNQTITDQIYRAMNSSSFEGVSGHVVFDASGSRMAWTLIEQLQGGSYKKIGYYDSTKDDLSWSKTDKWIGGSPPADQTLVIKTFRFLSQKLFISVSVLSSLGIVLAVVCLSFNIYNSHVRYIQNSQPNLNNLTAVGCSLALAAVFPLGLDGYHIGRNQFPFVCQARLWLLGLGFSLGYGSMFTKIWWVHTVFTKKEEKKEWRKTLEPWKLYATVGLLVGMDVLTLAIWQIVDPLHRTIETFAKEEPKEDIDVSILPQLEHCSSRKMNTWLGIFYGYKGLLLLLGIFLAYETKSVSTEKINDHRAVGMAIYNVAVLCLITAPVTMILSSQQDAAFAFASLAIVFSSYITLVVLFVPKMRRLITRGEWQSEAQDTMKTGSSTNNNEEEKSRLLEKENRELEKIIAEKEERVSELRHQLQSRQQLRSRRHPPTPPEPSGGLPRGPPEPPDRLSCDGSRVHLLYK
T1 sequence (O75899 42-941): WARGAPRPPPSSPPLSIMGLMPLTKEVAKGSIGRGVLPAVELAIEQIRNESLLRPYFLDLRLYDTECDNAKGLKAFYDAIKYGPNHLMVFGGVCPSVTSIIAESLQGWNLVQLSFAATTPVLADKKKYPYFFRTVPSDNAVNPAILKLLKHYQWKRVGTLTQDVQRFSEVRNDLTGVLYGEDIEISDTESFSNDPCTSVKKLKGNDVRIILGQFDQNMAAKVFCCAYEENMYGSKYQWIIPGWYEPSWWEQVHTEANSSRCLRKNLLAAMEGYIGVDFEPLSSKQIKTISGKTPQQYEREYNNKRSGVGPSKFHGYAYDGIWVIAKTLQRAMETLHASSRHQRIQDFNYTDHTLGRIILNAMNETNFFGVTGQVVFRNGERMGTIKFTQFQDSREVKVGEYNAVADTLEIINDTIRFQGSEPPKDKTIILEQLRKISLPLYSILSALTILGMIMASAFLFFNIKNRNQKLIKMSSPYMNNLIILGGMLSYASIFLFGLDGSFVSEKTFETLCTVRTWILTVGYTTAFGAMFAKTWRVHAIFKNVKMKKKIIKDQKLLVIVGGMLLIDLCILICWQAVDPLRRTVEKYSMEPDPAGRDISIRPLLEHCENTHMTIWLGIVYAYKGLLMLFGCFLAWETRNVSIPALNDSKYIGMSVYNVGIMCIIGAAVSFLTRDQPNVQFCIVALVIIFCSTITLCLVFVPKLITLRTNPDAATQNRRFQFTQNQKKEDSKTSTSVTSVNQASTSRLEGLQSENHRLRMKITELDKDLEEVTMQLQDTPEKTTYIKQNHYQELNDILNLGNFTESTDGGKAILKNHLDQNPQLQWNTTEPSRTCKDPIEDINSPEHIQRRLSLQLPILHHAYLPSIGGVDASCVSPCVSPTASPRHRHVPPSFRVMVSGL
In words: Intracellular Ca2+ mobilization assay in CHO-GABABR1aR2a-Gα16 cell (FLIPR). The settings on record: for GABA shift Log [EC50(GABA + 10 μM cp)/EC50(GABA alone)]: GABA 0.0003-30 μM with and without 10 μM enhancer; for Emax: enhancer 0.001-30 μM in presence of 10 nM GABA (EC10), applied 15 min before GABA, read-out: Emax (%) at 10 nM GABA alone = 0% 10 μM GABA alone = 100%; for EC50: enhancer concentration-response in presence of 10 nM GABA (EC10). The data set is classed as cell-based. Here is the method:
Intracellular Ca^2+ Mobilization Assay
The Chinese Hamster Ovary (CHO) cells stably expressing human GABABR1aR2a and Gα16 were seeded at 5×10^4 cells/well in the poly-D-lysine treated, 96-well, black/clear-bottomed plates (BD Biosciences, Palo Alto, Calif.). 24 h later, the cells were loaded for 90 min at 37° C. with 4 μM Flou-4 acetoxymethyl ester (Catalog No. F-14202, Molecular Probes, Eugene, Oreg.) in loading buffer (1×HBSS, 20 mM HEPES, 2.5 mM Probenecid). Hanks' Balanced Salt Solution (HBSS) (10×) (catalog No. 14065-049) and HEPES (1M) (catalog No. 15630-056) were purchased from Invitrogen, Carlsbad, Calif. Probenecid (250 mM) (catalog No. P8761) was from Sigma, Buchs, Switzerland. The cells were washed five times with loading buffer to remove excess dye and intracellular calcium mobilization, [Ca^2+]i were measured using a Fluorometric Imaging Plate Reader (FLIPR, Molecular Devices, Menlo Park, Calif.) as described previously (Porter et al., Br. J. Pharmacol., 128, 13-20, 1999). The enhancers were applied 15 min before the application of the GABA. For GABA shift assay, concentration-response curves of GABA (0.0003-30 μM) were determined in the absence and presence of […] enhancer. The GABA-shift is defined as Log [EC50 (GABA+10 μM enhancer)/EC50 (GABA alone)]. The % maximum enhancing effect (% Emax) and potency (EC50 value) of each enhancer was determined from concentration-response curve of the enhancer (0.001-30 μM) in the presence of 10 nM GABA (EC10). Responses were measured as peak increase in fluorescence minus basal, normalized to the maximal stimulatory effect induced by 10 μM GABA alone (considered 100%) and 10 nM GABA alone (considered 0%). The data were fitted with the equation Y=100+(Max−100)/(1+(EC50/[drug])^n) where Max is the maximum effect, EC50 the concentration eliciting a half-maximum effect and n the Hill slope.
For orientation: Calcium assays in cells follow changes in intracellular calcium, usually with a dye or a luminescent sensor.

The conditions of data set [3]: cited from earlier work.

For `NCC(CC(=O)O)c1ccc(Cl)cc1` (stereo not drawn) [Baclofen, β-chlorophenyl GABA], in data set [1] (2.5-15 mg/kg), the “effect on spontaneous locomotor activity, rotarod, body temperature and traction test” value is “showed these side effects”.
In the case of `CC(C)(CO)Cc1cc(C(C)(C)C)c(O)c(C(C)(C)C)c1` [CGP7930, 2,6-di-tert-butyl-4-(3-hydroxy-2,2-dimethyl-propyl)-phenol], the decreasing cocaine self-administration entry in data set [2] is recorded as “effective”.
As to `Cc1nc2ccc(Br)cc2c(-c2ccccc2)c1C(=O)C(F)(F)F` [Example 3, 1-(6-Bromo-2-methyl-4-phenyl-quinolin-3-yl)-2,2,2-trifluoro-ethanone], on human GABABR1aR2a, the “GABA shift Log [EC50(GABA + 10 μM cp)/EC50(GABA alone)]” value (“GABA shift Log” for short) is recorded as −1.20; the Emax – broadly, the size of the effect at its maximum, as opposed to the concentration needed – worked out at 124%; the EC50 (as a rule, the midpoint of the concentration-response curve) was 0.8 µM.
With `Cc1nc2ccc(OC(F)(F)F)cc2c(-c2ccccc2)c1C(=O)C(F)(F)F` [Example 11, 2,2,2-Trifluoro-1-(2-methyl-4-phenyl-6-trifluoromethoxy-quinolin-3-yl)-ethanone], at human GABABR1aR2a, the “GABA shift Log” value is given as −1.00, the maximum response (Emax) came to 65% and the EC50 worked out at 0.8 µM.
Taken in the same sequence, the figures for `CC(=O)c1c(C)nc2ccc(OC(F)(F)F)cc2c1-c1cccc(Cl)c1` [Example 15, 1-[4-(3-Chloro-phenyl)-2-methyl-6-trifluoromethoxy-quinolin-3-yl]-ethanone] were −1.15, 67% and 1.6 µM.
As for `Cc1nc2cc3c(cc2c(-c2ccccc2)c1C(=O)C(F)(F)F)OC(F)(F)O3` [Example 19, 1-(2,2-Difluoro-6-methyl-8-phenyl-[1,3]dioxolo[4,5-g]quinolin-7-yl)-2,2,2-trifluoro-ethanone], on human GABABR1aR2a, the “GABA shift Log” value was −0.70, the Emax came out at 63% and the EC50 was 0.9 µM.
Taken in the same sequence, the figures for `Cc1nc2ccc(N3CCCCC3)cc2c(-c2ccc(F)cc2)c1C(=O)C(F)(F)F` [Example 33, 2,2,2-Trifluoro-1-[4-(4-fluoro-phenyl)-2-methyl-6-piperidin-1-yl-quinolin-3-yl]-ethanone] were −0.90, 62% and 0.33 µM.
Taken in the same sequence, the figures for `Cc1nc2ccc(Br)cc2c(-c2ccc(F)cc2)c1C(=O)C1CC1` [Example 56, [6-Bromo-4-(4-fluoro-phenyl)-2-methyl-quinolin-3-yl]-cyclopropyl-methanone] were −0.90, 58% and 2.2 µM.
For `CSc1nc(NC2CCCC2)c([N+](=O)[O-])c(NC2CCCC2)n1` [GS39783, N,N_-dicyclopentyl-2-methylsulfanyl-5-nitro-pyrimidine-4,6-diamine], the “effect on spontaneous locomotor activity, rotarod, body temperature and traction test” value in data set [1] (0.1-200 mg/kg) is recorded as “had no effect”. In data set [3] (21 days, 10 mg/kg, P.O., once daily), the “tolerance after chronic treatment” value is “No tolerance”. Moreover, in data set [3] (elevated plus maze (rat), elevated zero maze (mice and rats), stress-induced hyperthermia (mice)), the anxiolytic-like effects entry was “exhibited anxiolytic-like effects”. Moreover, in data set [2], the decreasing cocaine self-administration entry was “effective”.
